Here are results for eleven molecules from US10030016B2 (Sunesis Pharmaceuticals, Inc., priority 2009, dated 2018).

Where a name gives a salt, the structure may show the parent alone. Read-outs that look alike come from different tables or passages of the source. Some results are limits rather than exact numbers.

One assay concerns the target PDK1 (Homo sapiens (Human), UniProt O15530). The assay is described as follows: PDK1 kinase assay (coupled PDK1/AKT/FAM-crosstide assay, IMAP fluorescence polarization). The format is biochemical. The essentials:
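Inhibition is derived by 4-parameter fitting of ΔmP from an IMAP fluorescence polarization read of FAM-crosstide (100 nM) phosphorylation. The cascade ran 30 min at 25 °C with 40 μM ATP, using insect-cell GST-PDK1 51-359 (0.75 nM) driving 10 nM unphosphorylated AKT2 140-467-PIFtide fusion.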

For assay [1], the system named is phospho-akt (Thr308) in PC-3 cells. Briefly: Inhibition of phospho-akt (Thr308) in PC-3 cells, MSD phospho-akt 308 ELISA kit. The format is cell-based. To be noted: Homo sapiens, 2 hours, no serum, read-out: EC50. A digest of the protocol: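 Serum-free 2 h compound exposure of overnight-seeded PC-3 cells, threefold dilution series; lysates analysed on blocked MSD plates (3% BSA) for Thr308-phosphorylated Akt, normalised between DMSO and 5 μM wortmannin wells.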

[2] abbreviates: inhibition of phospo-PDK1 in vitro.
[3] abbreviates: inhibition of P308 Akt in PC-3 cells, MSD.
[4] abbreviates: inhibition of P308 Akt in PC-3 cells using MSD.

Chain of PDK1 (O15530 51-359): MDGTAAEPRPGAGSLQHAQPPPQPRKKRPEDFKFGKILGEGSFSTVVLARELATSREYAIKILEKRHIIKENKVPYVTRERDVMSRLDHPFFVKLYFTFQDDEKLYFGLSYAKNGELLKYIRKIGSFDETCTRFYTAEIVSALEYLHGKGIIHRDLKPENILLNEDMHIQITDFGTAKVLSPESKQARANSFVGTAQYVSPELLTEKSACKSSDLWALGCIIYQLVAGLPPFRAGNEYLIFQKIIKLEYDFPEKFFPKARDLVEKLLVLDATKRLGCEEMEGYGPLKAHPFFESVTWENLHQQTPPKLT

As to `Nc1ncnc2ccc(-c3ccc(CNc4ncc(S(N)(=O)=O)cc4C(=O)NCc4ccc(F)c(F)c4)s3)cc12` [Example 8.7.2, 2-({[5-(4-aminoquinazolin-6-yl)thiophen-2-yl]methyl}amino)-N-(3,4-difluorobenzyl)-5-sulfamoylpyridine-3-carboxamide], at PDK1 (setting [2]), the IC50 was less than 100 nM. Further, in assay [1] (setting [3]), the EC50 lay in the range of 1000 to 10000 nM.
On to `Cc1n[nH]c2ncc(-c3ccc(CNc4ncc(C#N)nc4C(=O)N[C@@H](C)c4ccc(F)c(F)c4)cc3)cc12` [Example 410, (S)-6-cyano-N-(1-(3,4-difluorophenyl)ethyl)-3-(4-(3-methyl-1H-pyrazolo [3,4-b]pyridin-5-yl)benzylamino)pyrazine-2-carboxamide], for which the IC50 at PDK1 (inhibition of PDK1 in vitro) is less than 100 nM. Moreover, the EC50 in assay [1] (setting [4]) was less than 1000 nM.
`C[C@H](NC(=O)c1nc(C#N)cnc1NCC1CCC(c2cc3c(N)ncnc3n2C)CC1)c1ccc(F)c(F)c1` (stereo partly shown) [Example 340] had an IC50 at PDK1 (inhibition of PDK1 in vitro) greater than 5000 nM. Moreover, the EC50 in assay [1] (setting [4]) fell in the range of 1000 to 10000 nM.
`C[C@H](NC(=O)c1cc(C(F)(F)F)cnc1NC/C=C/c1ccc2c(c1)NC(=O)/C2=C\c1cnc[nH]1)c1ccc(F)c(F)c1` [Example 15.2, 2-((E)-3-((Z)-3-((1H-imidazol-5-yl)methylene)-2-oxoindolin-6-yl)allylamino)-N-((S)-1-(3,4-difluorophenyl)ethyl)-5-(trifluoromethyl)nicotinamide] yielded an IC50 against PDK1 (setting [2]) of 100 to 1000 nM. Further, the EC50 in assay [1] (setting [3]) was less than 1000 nM.
Consider `C[C@H](NC(=O)c1nc(C#N)cnc1NCc1ccc(-c2cnc3[nH]nc(NC(=O)C(C)(C)C)c3c2)cc1)c1ccc(F)c(F)c1` [Example 420, (S)-6-cyano-N-(1-(3,4-difluorophenyl)ethyl)-3-(4-(3-pivalamido-1H-pyrazolo[3,4-b]pyridin-5-yl)benzylamino)pyrazine-2-carboxamide], for which, on PDK1 (inhibition of PDK1 in vitro), the IC50 is less than 100 nM. In addition, in assay [1] (setting [4]), the EC50 was 1000 to 10000 nM.
`CNC(=O)c1nc(-c2ccc(CNc3ncc(C#N)cc3C(=O)N[C@@H](C)c3ccc(F)cc3)cc2)cnc1N` [Example 216, (S)-3-amino-6-(4-((5-cyano-3-(1-(4-fluorophenyl)ethylcarbamoyl)pyridin-2-ylamino)methyl)phenyl)-N-methylpyrazine-2-carboxamide]: the IC50 on PDK1 (inhibition of PDK1 in vitro) is less than 100 nM. For the same molecule, the EC50 in assay [1] (setting [4]) is less than 1000 nM.
On PDK1 (setting [2]), `N#Cc1cnc(NC/C=C/c2ccc3c(c2)NC(=O)/C3=C\c2cnc[nH]2)c(C(=O)O)c1` [Example 15.16, 2-((E)-3-((Z)-3-((1H-imidazol-5-yl)methylene)-2-oxoindolin-6-yl)allylamino)-5-cyanonicotinic acid] yielded an IC50 of 100 to 1000 nM. Further, the EC50 in assay [1] (setting [3]) was greater than 10000 nM.
In turn, `Nc1ncnc2ccc(-c3ccc(CNc4nc(C(F)(F)F)ccc4C(=O)NCc4ccc(F)c(F)c4)s3)cc12` [Example 8.12.2, 2-({[5-(4-aminoquinazolin-6-yl)thiophen-2-yl]methyl}amino)-N-(3,4-difluorobenzyl)-6-(trifluoromethyl)pyridine-3-carboxamide] came in with an IC50 at PDK1 (setting [2]) of less than 100 nM. For the same molecule, in assay [1] (setting [3]), the EC50 is 1000 to 10000 nM.
As for `Nc1n[nH]c2ncc(-c3ccc(CNc4ncc(C(F)(F)F)cc4C(=O)NC4CC4)cc3)cc12` [Example 260, 2-(4-(3-amino-1H-pyrazolo[3,4-b]pyridin-5-yl)benzylamino)-N-cyclopropyl-5-(trifluoromethyl)nicotinamide], the IC50 at PDK1 (inhibition of PDK1 in vitro) lay within 100 to 1000 nM. In assay [1] (setting [4]), the EC50 fell in the range of 1000 to 10000 nM.
In the case of `CCNC(=O)c1cccnc1NCc1cccc(-c2c[nH]c3ncccc23)c1` [Example 1.11, N-ethyl-2-{[3-(1H-pyrrolo[2,3-b]pyridin-3-yl)benzyl]amino}pyridine-3-carboxamide], on PDK1 (setting [2]), the IC50 was greater than 5000 nM. The EC50 in assay [1] (setting [3]) was 1000 to 10000 nM.
The molecule `C[C@H](NC(=O)c1cccnc1NCc1ccc(-c2ccc3ncnc(N)c3c2)s1)c1ccc(F)cn1` [Example 3.66, 2-({[5-(4-aminoquinazolin-6-yl)thiophen-2-yl]methyl}amino)-N-[(1S)-1-(5-fluoropyridin-2-yl)ethyl] pyridine-3-carboxamide (TFA salt)] displayed an IC50 on PDK1 (setting [2]) of 100 to 1000 nM. Further, the EC50 in assay [1] (setting [3]) was in the range of 1000 to 10000 nM.
